Consider 20 compounds from ChEMBL document CHEMBL1126832, “2-Amido-8-methoxytetralins: a series of nonindolic melatonin-like agents” (J Med Chem, 1993).

For assay [1], the target named is Melatonin receptor (Gallus gallus, UniProt P49288+P51050+P49285). As to the kind of experiment: Binding affinity to compete for 2-[125I]iodomelatonin binding to chicken retinal membranes. More on the design: species or system Retina, Membrane.
Assay [2] concerns the target Melatonin receptor (Gallus gallus) (UniProt P49288+P51050+P49285). As to the kind of experiment: Relative binding affinity to chicken retinal membranes compared to 2-[125I]iodomelatonin. Particulars: Retina; Membrane; call rule not given here.
The target of assay [3] is Melatonin receptor (Oryctolagus cuniculus). As to the kind of experiment: Inhibition of […] calcium dependent dopamine release from the rabbit retina.
The species entered for assay [4] is Oryctolagus cuniculus. As to the kind of experiment: Tested for in vitro inhibition of calcium-dependent release of [3H]dopamine from rabbit retina; NE- No effect. The format is functional.

For the compound `COc1ccc2c(c1)CCC(N)C2.Cl` (stereo unspecified), the Ki in assay [1] was greater than 100000 nM.

In assay [2], `COc1cccc2c1CCC(NC(C)=O)C2` (stereo unspecified) returned a Relative affinity of 3420. In assay [3], the IC50 is listed as 6.5 nM. The same compound showed a Ki in assay [1] of 1950 nM.

Take `COc1cccc2c1CC(NC(=O)CCl)CC2` (stereo unspecified): the Relative affinity in assay [2] came to 6.6. For the same compound, the IC50 in assay [3] is given as 0.063 nM. Besides, the Ki in assay [1] stood at 3.75 nM.

Turning to `COc1ccc2c(c1)CC(NC(C)=O)CC2` (stereo unspecified), in assay [2], the Relative affinity is 212. Moreover, the IC50 in assay [3] was found to be 1.6 nM. For the same compound, the Ki in assay [1] is reported as 121 nM.

Consider `COc1ccccc1CCNC(C)=O`, for which, in assay [2], the Relative affinity was determined as 737. In assay [3], the IC50 stood at 3 nM. The Ki in assay [1] was found to be 420 nM.

Compound `CCC(=O)NCCc1c[nH]c2ccc(OC)cc12` came in with a Relative affinity in assay [2] of 0.47. In assay [1], this compound gave a Ki of 0.27 nM.

`COc1cccc(CCNC(C)=O)c1` displayed a Relative affinity in assay [2] of 1020. The same compound yielded a Ki in assay [1] of 581 nM.

With `COc1cccc2c1CC(NC(=O)C(C)C)CC2` (stereo unspecified), the Relative affinity in assay [2] amounted to 547. For the same compound, the IC50 in assay [3] was found to be 7.9 nM. The compound further had a Ki in assay [1] of 312 nM.

As to `CCCC(=O)NC1CCc2cccc(OC)c2C1` (stereo unspecified), the Relative affinity in assay [2] stood at 6.3. In addition, the IC50 in assay [3] is recorded as 1.2 nM. In assay [1], this compound showed a Ki of 3.6 nM.

Compound `CC(=O)NC1CCc2ccccc2C1` (stereo unspecified) gave a Relative affinity in assay [2] of 1170. In addition, in assay [3], the IC50 came to 52 nM. The compound further registered a Ki in assay [1] of 665 nM.

Turning to `CCCC(=O)NC1CCc2ccccc2C1` (stereo unspecified), the Relative affinity in assay [2] was determined as 78. Further, the IC50 in assay [3] is listed as 1 nM. Moreover, in assay [1], the Ki was 44.4 nM.

Consider `CCC(=O)NCCc1ccccc1OC`, for which the Relative affinity in assay [2] worked out at 1380. For the same compound, the Ki in assay [1] is listed as 789 nM.

Turning to `COc1cccc2c1CC(NC(=O)C1CC1)CC2` (stereo unspecified), the Relative affinity in assay [2] was 247. Further, the IC50 in assay [3] came out at 2.5 nM. In addition, the Ki in assay [1] was determined as 141 nM.

Compound `CCCC(=O)NCCc1c[nH]c2ccc(OC)cc12` showed a Relative affinity in assay [2] of 1.28. In assay [1], this compound yielded a Ki of 0.73 nM.

In the case of `COc1cccc2c1CC(NC(=O)Cc1ccccc1)CC2` (stereo unspecified), the IC50 result in assay [4] is “Not Active”.

On to `CCCC(=O)NCCc1ccccc1OC`, for which the Relative affinity in assay [2] was 1310. Moreover, in assay [1], the Ki came to 748 nM.

In assay [2], `COc1cc2c(CCNC(C)=O)c(C)[nH]c2c(Cl)c1Cl` showed a Relative affinity of 0.4. In addition, in assay [3], the IC50 turned out to be 0.01 nM. Also, the Ki in assay [1] is on record as 0.23 nM.

`CCC(=O)NC1CCc2ccccc2C1` (stereo unspecified): the Relative affinity in assay [2] came out at 254. In addition, the IC50 in assay [3] was 8.1 nM. The inhibition constant (Ki) in assay [1] amounted to 145 nM.

In turn, `O=C(CCl)NC1CCc2ccccc2C1` (stereo unspecified) registered a Relative affinity in assay [2] of 167. The IC50 in assay [3] is listed as 1.3 nM. Further, the Ki in assay [1] was 95.1 nM.

`COc1cccc2c1CC(NC(=O)c1ccccc1)CC2` (stereo unspecified) registered a Relative affinity in assay [2] of 40500. In assay [3], the half-maximal inhibitory concentration (IC50) turned out to be 22 nM. Moreover, in assay [1], the Ki came to 23100 nM.

As usually defined, the Ki is a measure of affinity in units of concentration, obtained from inhibition or displacement. A low value points to tighter binding. In general, IC50 refers to the concentration that gives 50% inhibition.
